Target: Cationic amino acid transporter 3 (Homo sapiens) (UniProt Q8WY07)
Experiment: CAT-3 electrogenic transport substrate activity – HEK293 JumpIn overexpressing cells, membrane potential dye, dose response (AID 1745863)
Details: HEK293 JumpIn SLC7A3 OE, membrane potential dye FLIPR;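 active means compound giving a dose-dependent response in SLC7A3-expressing cells, absent in control cells, with a fitted EC50; inactive means the rest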

Chain of Cationic amino acid transporter 3 (Homo sapiens) (Q8WY07 whole entry, looked up): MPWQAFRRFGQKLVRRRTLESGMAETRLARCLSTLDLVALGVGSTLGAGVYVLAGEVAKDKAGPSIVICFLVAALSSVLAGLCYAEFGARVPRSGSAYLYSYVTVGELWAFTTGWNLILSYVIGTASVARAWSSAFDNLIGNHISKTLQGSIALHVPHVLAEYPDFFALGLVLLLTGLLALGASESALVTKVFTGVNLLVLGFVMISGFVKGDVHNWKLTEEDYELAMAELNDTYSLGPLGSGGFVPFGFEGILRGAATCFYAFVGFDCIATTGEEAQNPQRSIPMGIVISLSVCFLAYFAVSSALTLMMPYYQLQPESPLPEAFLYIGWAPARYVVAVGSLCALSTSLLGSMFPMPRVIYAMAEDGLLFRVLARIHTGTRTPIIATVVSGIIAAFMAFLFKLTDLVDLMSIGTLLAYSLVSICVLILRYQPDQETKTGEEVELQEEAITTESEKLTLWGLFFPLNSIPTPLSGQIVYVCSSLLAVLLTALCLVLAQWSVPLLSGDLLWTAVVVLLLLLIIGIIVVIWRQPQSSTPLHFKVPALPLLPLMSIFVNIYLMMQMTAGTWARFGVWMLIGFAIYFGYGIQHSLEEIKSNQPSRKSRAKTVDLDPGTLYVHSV

EC50, active:
NC(N)=NCCC[C@H](N)C(=O)O 283 µM
NCCCC[C@H](N)C(=O)O 158 µM
NCCC[C@H](N)C(=O)O 237 µM

From PubChem BioAssay AID1745863
